Reference: patent US6844429B2, “Fullerene derivative and composition comprising the same” (San-Ei Gen F.F.I., priority 2001, dated 2005)

Test system: not listed separately
Experiment: Quantum yield measurement of singlet oxygen (DPBF absorbance decay under light irradiation)
Assay type: physicochemical
Settings: singlet oxygen quantum yield relative to tetraphenylporphyrin; DMSO, 27° C., 6.5×10^−7 M fullerene derivative, DPBF absorbance at 418 nm
Experimental: A DMSO solution containing 5.5×10^−5 M of 1,3-diphenylisobenzofuran (DPBF) was prepared, maintaining the water temperature in a waterbath at 27° C. 3 mL of the DMSO solution was poured into a quartz cell and a DMSO solution containing 1.5×10^−5 M of fullerene derivatives was added so that the concentration of the resulting solution is set to 6.5×10^−7 M. Subsequently, oxygen was bubbled through the solution for one minute or more. The cell was set in position within the waterbath, stirred using a multistirrer and irradiated with light every ten seconds to measure the absorbance of the DPBF at 418 nm. Natural logarithm of the absorbance thus measured was plotted against time of light irradiation to find the gradient. Thus, a relative scale with respect to the quantum yield of tetraphenylporphyrin (φ^1O2) was calculated.

Molecule	Relative scale for φ^1O2
OCC1OC(OCCn2c3c4c5c6c7c8c9c%10c%11c%12c%13c%10c%10c8c8c%14c%10c%10c%13c%13c%15c%12c%12c%16c%11c%11c9c7c7c9c%11c%16c%11c%16c%12c%15c%12c%15c%13c%10c%10c%14c(c4c86)c4c%10c%15c6c%12c%16c8c%11c9c(c75)c3c8c6c42)C(O)C(O)C1O [(D-Gal-(CH2)2—N)C60, N-[2-(β-D-galactopyranosyloxy)ethyl][5,6]-azafulleroid]	0.7
OC1COC(OCCn2c3c4c5c6c7c8c9c%10c%11c%12c%13c%10c%10c8c8c%14c%10c%10c%13c%13c%15c%12c%12c%16c%11c%11c9c7c7c9c%11c%16c%11c%16c%12c%15c%12c%15c%13c%10c%10c%14c(c4c86)c4c%10c%15c6c%12c%16c8c%11c9c(c75)c3c8c6c42)C(O)C1O [(D-Xyl-(CH2)2—N)C60, N-[2-(β-D-xylopyranosyloxy)ethyl][5,6]-azafulleroid]	0.3
N, Nα-bis[2-(2,3,4,6-tetra-O-acetyl-β-D-glucopyranosyloxy)ethyl] [5,6]-diazafulleroid [(D-AcGlc-(CH2)2—N)2C60]	0.5
N, N′-bis [2-(2,3,4,6-tetra-O-acetyl-α-D-mannopyranosyloxy)ethyl] [5,6]-diazafulleroid [(D-AcMan-(CH2)2—N)2C60]	0.7
N, N′-bis[2-(2,3,4,6-tetra-O-acetyl-β-D-galactopyranosyloxy)ethyl] [5,6]-diazafulleroid [(D-AcGal-(CH2)2—N)2C60]	0.5
N, N′-bis[2-(2,3,6,8,9,13-hepta-O-acetyl-β-(α-D-glucopyranosyl (1-4)-D-glucopyranosyloxy)ethyl) [5,6]-diazafulleroid [(AcMal-(CH2)2—N)2C60]	0.6
N, N′-bis[2-(β-D-glucopyranosyloxy)ethyl][5,6]-diazafulleroid [(D-Glc-(CH2)2—N)2C60]	0.6
N,Nα-bis[2-(2,3,4-tri-O-acetyl-β-D-xylopyranosyloxy)ethyl] [5,6]-diazafulleroid [(D-AcXyl-(CH2)2—N)2C60]	0.3
N,N′-bis[2-(α-D-mannopyranosyloxy)ethyl] [5,6]-diazafulleroid [(D-Man-(CH2)2—N)2C60]	0.5
N,N′-bis[2-(β-(α-D-glucopyranosyl(1-4)-D-glucopyranosyloxy)ethyl) [5,6]-diazafulleroid [(Mal-(CH2)2—N)2C60]	0.8
N,N′-bis[2-(β-D-galactopyranosyloxy)ethyl] [5,6]-diazafulleroid [(D-Gal-(CH2)2—N)2C60]	0.7
N,N′-bis[2-(β-D-xylopyranosyloxy)ethyl] [5,6]-diazafulleroid [(D-Xyl-(CH2)2—N)2C60]	0.3
N-[2-(2,3,4,6-tetra-O-acetyl-α-D-mannopyranosyloxy)ethyl] [5,6]-azafulleroid [(D-AcMan-(CH2)2—N)C60]	0.8
N-[2-(2,3,4,6-tetra-O-acetyl-β-D-galactopyranosyloxy)ethyl] [5,6]-azafulleroid [(D-AcGal-(CH2)2—N)C60]	0.7
N-[2-(2,3,4,6-tetra-O-acetyl-β-D-glucopyranosyloxy)ethyl][5,6]-azafulleroid [(D-AcGlc-(CH2)2—N)C60]	0.6
N-[2-(2,3,4-tri-O-acetyl-β-D-xylopyranosyloxy)ethyl] [5,6]-azafulleroid [(D-AcXyl-(CH2)2—N)C60]	0.4
N-[2-(2,3,6,8,9,13-hepta-O-acetyl-β-(α-D-glucopyranosyl (1-4)-D-glucopyranosyloxy)ethyl) [5,6]-azafulleroid [(AcMal-(CH2)2—N)C60]	0.7
N-[2-(α-D-mannopyranosyloxy)ethyl] [5,6]-azafulleroid [(D-Man-(CH2—N)C60]	0.5
N-[2-(β-(α-D-glucopyranosyl(1-4)-D-glucopyranosyloxy)ethyl) [5,6]-azafulleroid [(Mal-(CH2)2—N)C60]	0.7
N-[2-(β-D-glucopyranosyloxy)ethyl] [5,6]-azafulleroid [(D-Glc-(CH2)2—N)C60]	0.6

Test system: HeLa cells
Experiment: Phototoxicity test: viability of HeLa cells by MTT assay, without and with light irradiation
Assay type: cell-based
Settings: 10 μM, light irradiation as in Test Example 2, FIG. 2
Experimental: The cytotoxicity of (Mal-(CH2)2—N)C60 (hereafter, referred to as Compound A) obtained in Example 12 was evaluated by the viability of HeLa cells using an MTT assay (Carmichal, J., W. G. DeGraff, A. F.Gazdar, J. D. Minna and J. B. Mitchell, Cancer Res., 1987, 47, 936-942). HeLa cells (5×10^3 cells/well) were incubated in a Dulbecco's modified Eagle's medium (DMEM) containing 10% fetal bovine serum (FBS) on a 96-well plate in 5% CO2 at 37° C. for 24 hours. After washing with phosphate buffered saline (PBS), 100 μl of (Mal-(CH2)2—N) C60 (DMEM) (−) solution (25 μM) as a fullerene derivative of the present invention was added to the cells, which were incubated for two hours. The cells were washed with PBS, replaced with 100 μl of DMEM(+) and theie viability was measured using the MTT assay. The viability was determined by measuring the absorbance at 570 nm (OD570). […] The ratio was calculated by the following formula: Cell survival ratio (%)=(OD 570 in the presence of Compound A/OD 570 in the absence of Compound A)×100. A cell survival ratio of 100% means the absence of cytotoxicity.
HeLa cells (5×10^3 cells/well) were treated in the same the manner as in the above. Compound A was added to the cells and the resulting cell was irradiated with a 500 W halogen lamp for 8 minutes. After 24 hours' incubation, the supernatant was removed and formazan was dissolved in 100 μl of DMSO. Thereafter, the viability was determined by measuring the absorbance at 570 nm (OD570). […] The ratio was calculated by the following formula: Cell survival ratio (%)=(OD 570 in the presence of Compound A with irradiation/OD 570 in the absence of Compound A with irradiation)×100.
Evaluations were made in the same manner as in Test Example 2 except that each of (Mal-(CH2)2—N)C60 (Compound A) obtained in Example 12 and (D-Xyl-(CH2)2—N)C60(hereafter, referred to as Compound B) obtained in Example 14 was used in amounts 1, 5, 10, 25 and […]. The obtained results of the cytotoxicities of Compounds A and B are shown in FIGS. 2 and 3, respectively.

Molecule	toxicity, share of the cells (photocytotoxicity)
N-[2-(β-(α-D-glucopyranosyl(1-4)-D-glucopyranosyloxy)ethyl) [5,6]-azafulleroid [(Mal-(CH2)2—N)C60]	about 50%

Same assay, conditions: 25 μM, 500 W halogen lamp for 8 minutes, 24 hours' incubation, MTT OD570, FIG. 1

Molecule	cytotoxicity (cell survival ratio) with light irradiation
N-[2-(β-(α-D-glucopyranosyl(1-4)-D-glucopyranosyloxy)ethyl) [5,6]-azafulleroid [(Mal-(CH2)2—N)C60]	cytotoxicity is observed

Same assay, conditions: 25 μM, two hours incubation, no light irradiation, MTT OD570, FIG. 1

Molecule	cytotoxicity (cell survival ratio) without light irradiation
N-[2-(β-(α-D-glucopyranosyl(1-4)-D-glucopyranosyloxy)ethyl) [5,6]-azafulleroid [(Mal-(CH2)2—N)C60]	cytotoxicity is not observed
